Measured values: patent US20230085307A1, “PYRIDAZINONE COMPOUND AND HERBICIDE” (NISSAN CHEMICAL CORPORATION, priority 2019, published 2023)

Assays:
[1] = system: lambsquarters; assay: Test Example 5: herbicidal effect by foliage application, plastic box (Table 20, symbol O); assay type: in vivo, lambsquarters (Chenopodium album); conditions: foliage application, AAH 320 g/ha, three weeks after application
Procedure, shortened: (§1)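 Sow seeds spot-wise in sterilized diluvial soil; cover with ~1.5 cm soil. Grow 14 days in greenhouse, 25° C. to 30° C. Spray foliage with emulsion diluted to predetermined amount. Rate effect after 3 weeks.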

[2] = system: redroot pigweed; assay: Test Example 5: herbicidal effect by foliage application, plastic box (Table 20, symbol N); assay type: in vivo, redroot pigweed (Amaranthus retroflexus); conditions: foliage application, AAH 320 g/ha, three weeks after application
Procedure, shortened: as §1

[3] = system: Italian ryegrass; assay: Test Example 5: herbicidal effect by foliage application, plastic box (Table 20, symbol K); assay type: in vivo, Italian ryegrass (Lolium multiflorum); conditions: foliage application, AAH 320 g/ha, three weeks after application
Procedure, shortened: as §1

[4] = system: barnyard grass; assay: Test Example 3: herbicidal effect by foliage application, Wagner pot (Table 18, symbol H); assay type: in vivo, barnyard grass (Echinochloa crus-galli); conditions: 320 g/ha
Procedure, shortened: (§2)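 Plants were sown in alluvial soil held under 0.1–0.5 cm standing water and grown 14 days in a greenhouse at 25–30 °C. An emulsifiable formulation, water-diluted to the set dose, was then sprayed onto the foliage, and effects were scored three weeks later using previously defined criteria.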

[5] = system: windgrass; assay: Test Example 4: herbicidal effect by soil treatment (Table 19, symbol L); assay type: in vivo, windgrass (Apera spica-venti); conditions: AAH 320 g/ha
Procedure, shortened: (§3)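 Applied as a water-diluted emulsion, the compound was sprayed onto soil covering newly sown seeds. Evaluation came three weeks after application, in a greenhouse held at 25° C. to 30° C.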

[6] = system: wild oat; assay: Test Example 4: herbicidal effect by soil treatment (Table 19, symbol I); assay type: in vivo, wild oat (Avena fatua); conditions: AAH 320 g/ha
Procedure, shortened: as §3

[7] = system: chickweed; assay: Test Example 5: herbicidal effect by foliage application, plastic box (Table 20, symbol P); assay type: in vivo, common chickweed (Stellaria media); conditions: foliage application, AAH 320 g/ha, three weeks after application
Procedure, shortened: as §1

[8] = system: wild oat; assay: Test Example 5: herbicidal effect by foliage application, plastic box (Table 20, symbol I); assay type: in vivo, wild oat (Avena fatua); conditions: foliage application, AAH 320 g/ha, three weeks after application
Procedure, shortened: as §1

[9] = system: southern crabgrass; assay: Test Example 4: herbicidal effect by soil treatment (Table 19, symbol F); assay type: in vivo, southern crabgrass (Digitaria ciliaris); conditions: AAH 320 g/ha
Procedure, shortened: as §3

[10] = system: lambsquarters; assay: Test Example 4: herbicidal effect by soil treatment (Table 19, symbol O); assay type: in vivo, lambsquarters (Chenopodium album); conditions: AAH 320 g/ha
Procedure, shortened: as §3

[11] = system: blackgrass; assay: Test Example 4: herbicidal effect by soil treatment (Table 19, symbol J); assay type: in vivo, blackgrass (Alopecurus myosuroides); conditions: AAH 320 g/ha
Procedure, shortened: as §3

[12] = system: Italian ryegrass; assay: Test Example 4: herbicidal effect by soil treatment (Table 19, symbol K); assay type: in vivo, Italian ryegrass (Lolium multiflorum); conditions: AAH 320 g/ha
Procedure, shortened: as §3

[13] = system: redroot pigweed; assay: Test Example 4: herbicidal effect by soil treatment (Table 19, symbol N); assay type: in vivo, redroot pigweed (Amaranthus retroflexus); conditions: AAH 320 g/ha
Procedure, shortened: as §3

[14] = system: southern crabgrass; assay: Test Example 5: herbicidal effect by foliage application, plastic box (Table 20, symbol F); assay type: in vivo, southern crabgrass (Digitaria ciliaris); conditions: foliage application, AAH 320 g/ha, three weeks after application
Procedure, shortened: as §1

[15] = system: green foxtail; assay: Test Example 4: herbicidal effect by soil treatment (Table 19, symbol G); assay type: in vivo, green foxtail (Setaria viridis); conditions: AAH 320 g/ha
Procedure, shortened: as §3

[16] = system: velvetleaf; assay: Test Example 5: herbicidal effect by foliage application, plastic box (Table 20, symbol M); assay type: in vivo, velvetleaf (Abutilon theophrasti); conditions: foliage application, AAH 320 g/ha, three weeks after application
Procedure, shortened: as §1

[17] = system: chickweed; assay: Test Example 4: herbicidal effect by soil treatment (Table 19, symbol P); assay type: in vivo, common chickweed (Stellaria media); conditions: AAH 320 g/ha
Procedure, shortened: as §3

[18] = system: barnyard grass; assay: Test Example 5: herbicidal effect by foliage application, plastic box (Table 20, symbol H); assay type: in vivo, barnyard grass (Echinochloa crus-galli); conditions: foliage application, AAH 320 g/ha, three weeks after application
Procedure, shortened: as §1

[19] = system: green foxtail; assay: Test Example 5: herbicidal effect by foliage application, plastic box (Table 20, symbol G); assay type: in vivo, green foxtail (Setaria viridis); conditions: foliage application, AAH 320 g/ha, three weeks after application
Procedure, shortened: as §1

[20] = system: blackgrass; assay: Test Example 5: herbicidal effect by foliage application, plastic box (Table 20, symbol J); assay type: in vivo, blackgrass (Alopecurus myosuroides); conditions: foliage application, AAH 320 g/ha, three weeks after application
Procedure, shortened: as §1

[21] = system: Chinese sprangletop; assay: Test Example 3: herbicidal effect by foliage application, Wagner pot (Table 18, symbol D); assay type: in vivo, chinese sprangletop (Leptochloa chinensis); conditions: 320 g/ha
Procedure, shortened: as §2

[22] = system: windgrass; assay: Test Example 5: herbicidal effect by foliage application, plastic box (Table 20, symbol L); assay type: in vivo, windgrass (Apera spica-venti); conditions: foliage application, AAH 320 g/ha, three weeks after application
Procedure, shortened: as §1

[23] = system: persian speedwell; assay: Test Example 4: herbicidal effect by soil treatment (Table 19, symbol R); assay type: in vivo, Persian speedwell (Veronica persica); conditions: AAH 320 g/ha
Procedure, shortened: as §3

[24] = system: persian speedwell; assay: Test Example 5: herbicidal effect by foliage application, plastic box (Table 20, symbol R); assay type: in vivo, Persian speedwell (Veronica persica); conditions: foliage application, AAH 320 g/ha, three weeks after application
Procedure, shortened: as §1

[25] = system: velvetleaf; assay: Test Example 4: herbicidal effect by soil treatment (Table 19, symbol M); assay type: in vivo, velvetleaf (Abutilon theophrasti); conditions: AAH 320 g/ha
Procedure, shortened: as §3

[26] = system: rice flat sedge; assay: Test Example 3: herbicidal effect by foliage application, Wagner pot (Table 18, symbol E); assay type: in vivo, rice flat sedge (Cyperus iria); conditions: 320 g/ha
Procedure, shortened: as §2

[27] = system: barnyard grass; assay: Test Example 4: herbicidal effect by soil treatment (Table 19, symbol H); assay type: in vivo, barnyard grass (Echinochloa crus-galli); conditions: AAH 320 g/ha
Procedure, shortened: as §3

SMILES	O: lambsquarters, herbicidal effect [1]	N: redroot pigweed, herbicidal effect [2]	K: Italian ryegrass, herbicidal effect [3]	herbicidal effect on H (barnyard grass), rating 0-5 [4]	L: windgrass, herbicidal effect rating [5]	I: wild oat, herbicidal effect rating [6]	P: chickweed, herbicidal effect [7]	I: wild oat, herbicidal effect [8]	F: southern crabgrass, herbicidal effect rating [9]	O: lambsquarters, herbicidal effect rating [10]	J: blackgrass, herbicidal effect rating [11]	K: Italian ryegrass, herbicidal effect rating [12]	N: redroot pigweed, herbicidal effect rating [13]	F: southern crabgrass, herbicidal effect [14]	G: green foxtail, herbicidal effect rating [15]	M: velvetleaf, herbicidal effect [16]	P: chickweed, herbicidal effect rating [17]	H: barnyard grass, herbicidal effect [18]	G: green foxtail, herbicidal effect [19]	J: blackgrass, herbicidal effect [20]	further results
Cc1nn(C)c(=O)c(-c2c(-c3ccc(C(F)(F)F)cc3)sc3ccccc23)c1O [1-129]	4 (Herbicidal rate of 70% or more and less than 90%)	5 (Herbicidal rate of 90% or more (almost completely withered))	5 (Herbicidal rate of 90% or more (almost completely withered))	3 (Herbicidal rate of 40% or more and less than 70%)	0 (Herbicidal rate of 5% or less (almost no effect))	0 (Herbicidal rate of 5% or less (almost no effect))	5 (Herbicidal rate of 90% or more (almost completely withered))	0 (Herbicidal rate of 5% or less (almost no effect))	0 (Herbicidal rate of 5% or less (almost no effect))	5 (Herbicidal rate of 90% or more (almost completely withered))	0 (Herbicidal rate of 5% or less (almost no effect))	5 (Herbicidal rate of 90% or more (almost completely withered))	5 (Herbicidal rate of 90% or more (almost completely withered))	0 (Herbicidal rate of 5% or less (almost no effect))	0 (Herbicidal rate of 5% or less (almost no effect))	5 (Herbicidal rate of 90% or more (almost completely withered))	1 (Herbicidal rate of 5% or more and less than 20%)	3 (Herbicidal rate of 40% or more and less than 70%)	2 (Herbicidal rate of 20% or more and less than 40%)	0 (Herbicidal rate of 5% or less (almost no effect))	herbicidal effect on D (Chinese sprangletop), rating 0-5 [21]: 3 (Herbicidal rate of 40% or more and less than 70%); L: windgrass, herbicidal effect [22]: 0 (Herbicidal rate of 5% or less (almost no effect)); R: persian speedwell, herbicidal effect rating [23]: 4 (Herbicidal rate of 70% or more and less than 90%); R: persian speedwell, herbicidal effect [24]: 5 (Herbicidal rate of 90% or more (almost completely withered)); M: velvetleaf, herbicidal effect rating [25]: 2 (Herbicidal rate of 20% or more and less than 40%); herbicidal effect on E (rice flat sedge), rating 0-5 [26]: 5 (Herbicidal rate of 90% or more (almost completely withered)); H: barnyard grass, herbicidal effect rating [27]: 0 (Herbicidal rate of 5% or less (almost no effect))
Cc1nn(C)c(=O)c(-c2c(-c3ccc(OCC#N)cc3)sc3ccccc23)c1O [1-137]	3 (Herbicidal rate of 40% or more and less than 70%)	0 (Herbicidal rate of 5% or less (almost no effect))	0 (Herbicidal rate of 5% or less (almost no effect))	3 (Herbicidal rate of 40% or more and less than 70%)	0 (Herbicidal rate of 5% or less (almost no effect))	0 (Herbicidal rate of 5% or less (almost no effect))	3 (Herbicidal rate of 40% or more and less than 70%)	0 (Herbicidal rate of 5% or less (almost no effect))	0 (Herbicidal rate of 5% or less (almost no effect))	2 (Herbicidal rate of 20% or more and less than 40%)	0 (Herbicidal rate of 5% or less (almost no effect))	0 (Herbicidal rate of 5% or less (almost no effect))	3 (Herbicidal rate of 40% or more and less than 70%)	0 (Herbicidal rate of 5% or less (almost no effect))	2 (Herbicidal rate of 20% or more and less than 40%)	3 (Herbicidal rate of 40% or more and less than 70%)	0 (Herbicidal rate of 5% or less (almost no effect))	1 (Herbicidal rate of 5% or more and less than 20%)	0 (Herbicidal rate of 5% or less (almost no effect))	0 (Herbicidal rate of 5% or less (almost no effect))	herbicidal effect on D (Chinese sprangletop), rating 0-5 [21]: 3 (Herbicidal rate of 40% or more and less than 70%); L: windgrass, herbicidal effect [22]: 0 (Herbicidal rate of 5% or less (almost no effect)); R: persian speedwell, herbicidal effect rating [23]: 3 (Herbicidal rate of 40% or more and less than 70%); R: persian speedwell, herbicidal effect [24]: 4 (Herbicidal rate of 70% or more and less than 90%); M: velvetleaf, herbicidal effect rating [25]: 0 (Herbicidal rate of 5% or less (almost no effect)); herbicidal effect on E (rice flat sedge), rating 0-5 [26]: 5 (Herbicidal rate of 90% or more (almost completely withered)); H: barnyard grass, herbicidal effect rating [27]: 0 (Herbicidal rate of 5% or less (almost no effect))
